Reference: the NIST ThermoML archive (doi:10.1016/j.jct.2017.06.001)
Numbers after ± are expanded uncertainties.

Assay: xn = mol fraction of the nth substance listed
Conditions: 100 kPa, Liquid; for speed of sound: Frequency=5 MHz, Pulse-echo method; for mass density: Vibrating tube method

OCCCCCO [1,5-pentanediol] + O
Conditions | mass density [kg/m3] | speed of sound [m/s]
298.15 K, x1 = 0.005 | 996.7 ± 0.53 | –
298.15 K, x1 = 0.0101 | 996.7 ± 1 | –
298.15 K, x1 = 0.0196 | 997.13 ± 1 | –
298.15 K, x1 = 0.0251 | 997.61 ± 1 | –
298.15 K, x1 = 0.0304 | 998.17 ± 1 | –
298.15 K, x1 = 0.05 | 999.75 ± 1 | –
298.15 K, x1 = 0.0769 | 1001.11 ± 1 | –
298.15 K, x1 = 0.1002 | 1002.09 ± 1.1 | –
298.15 K, x1 = 0.1282 | – | 1678.7 ± 1.2
298.15 K, x1 = 0.1298 | – | 1679.1 ± 1.2
298.15 K, x1 = 0.1332 | – | 1680 ± 1.2
298.15 K, x1 = 0.1353 | – | 1680.5 ± 1.2
298.15 K, x1 = 0.1358 | – | 1680.6 ± 1.2
298.15 K, x1 = 0.1417 | – | 1681.8 ± 1.3
298.15 K, x1 = 0.1438 | 1002.72 ± 1.1 | –
298.15 K, x1 = 0.1444 | – | 1682.3 ± 1.3
298.15 K, x1 = 0.1473 | – | 1682.8 ± 1.3
298.15 K, x1 = 0.1535 | – | 1683.7 ± 1.3
298.15 K, x1 = 0.1536 | – | 1683.7 ± 1.3
298.15 K, x1 = 0.1588 | – | 1684.3 ± 1.3
298.15 K, x1 = 0.1603 | – | 1684.5 ± 1.3
298.15 K, x1 = 0.1616 | – | 1684.6 ± 1.3
298.15 K, x1 = 0.1649 | – | 1684.9 ± 1.3
298.15 K, x1 = 0.1676 | – | 1685.1 ± 1.3
298.15 K, x1 = 0.1771 | – | 1685.7 ± 1.3
298.15 K, x1 = 0.1845 | 1002.56 ± 1.1 | –
298.15 K, x1 = 0.1944 | – | 1686.1 ± 1.3
298.15 K, x1 = 0.2114 | – | 1686 ± 1.3
298.15 K, x1 = 0.2309 | – | 1685.4 ± 1.3
298.15 K, x1 = 0.247 | – | 1684.6 ± 1.3
298.15 K, x1 = 0.2503 | 1001.62 ± 1.2 | –
298.15 K, x1 = 0.2649 | – | 1683.5 ± 1.4
298.15 K, x1 = 0.2807 | – | 1682.5 ± 1.4
298.15 K, x1 = 0.2987 | – | 1681.1 ± 1.4
298.15 K, x1 = 0.3 | 1000.58 ± 1.2 | –
298.15 K, x1 = 0.3178 | – | 1679.6 ± 1.4
298.15 K, x1 = 0.3343 | 999.9 ± 1.3 | –
298.15 K, x1 = 0.3356 | – | 1678 ± 1.4
298.15 K, x1 = 0.3619 | – | 1675.6 ± 1.4
298.15 K, x1 = 0.38 | – | 1673.8 ± 1.5
298.15 K, x1 = 0.4015 | – | 1671.6 ± 1.5
298.15 K, x1 = 0.4171 | 998.14 ± 1.4 | –
298.15 K, x1 = 0.4247 | – | 1669.1 ± 1.5
298.15 K, x1 = 0.4487 | – | 1666.4 ± 1.5
298.15 K, x1 = 0.454 | 997.25 ± 1.4 | –
298.15 K, x1 = 0.4652 | – | 1664.4 ± 1.6
298.15 K, x1 = 0.4828 | – | 1662.2 ± 1.6
298.15 K, x1 = 0.4985 | – | 1660.2 ± 1.6
298.15 K, x1 = 0.5003 | 996.2 ± 1.5 | –
298.15 K, x1 = 0.5142 | – | 1658.1 ± 1.6
298.15 K, x1 = 0.5304 | – | 1656 ± 1.6
298.15 K, x1 = 0.5362 | 995.4 ± 1.5 | –
298.15 K, x1 = 0.5465 | – | 1653.8 ± 1.7
298.15 K, x1 = 0.5643 | – | 1651.3 ± 1.7
298.15 K, x1 = 0.5819 | – | 1648.8 ± 1.7
298.15 K, x1 = 0.5991 | – | 1646.4 ± 1.7
298.15 K, x1 = 0.6177 | 993.8 ± 1.7 | –
298.15 K, x1 = 0.6187 | – | 1643.6 ± 1.8
298.15 K, x1 = 0.6363 | – | 1641.1 ± 1.8
298.15 K, x1 = 0.6478 | 993.2 ± 1.7 | –
298.15 K, x1 = 0.6547 | – | 1638.5 ± 1.8
298.15 K, x1 = 0.6726 | – | 1635.9 ± 1.8
298.15 K, x1 = 0.6904 | – | 1633.4 ± 1.9
298.15 K, x1 = 0.7025 | 992.2 ± 1.8 | –
298.15 K, x1 = 0.7097 | – | 1630.7 ± 1.9
298.15 K, x1 = 0.729 | – | 1628 ± 1.9
298.15 K, x1 = 0.7504 | 991.4 ± 1.9 | –
298.15 K, x1 = 0.7505 | – | 1625.1 ± 1.9
298.15 K, x1 = 0.7712 | – | 1622.3 ± 2
298.15 K, x1 = 0.7919 | – | 1619.6 ± 2
298.15 K, x1 = 0.7927 | 990.6 ± 2 | –
298.15 K, x1 = 0.8118 | – | 1617 ± 2
298.15 K, x1 = 0.8321 | – | 1614.5 ± 2
298.15 K, x1 = 0.8523 | – | 1612 ± 2.1
298.15 K, x1 = 0.8605 | 989.3 ± 2.1 | –
298.15 K, x1 = 0.8751 | – | 1609.2 ± 2.1
298.15 K, x1 = 0.8978 | – | 1606.4 ± 2.1
298.15 K, x1 = 0.9004 | 988.6 ± 2.2 | –
298.15 K, x1 = 0.9201 | – | 1603.7 ± 2.2
298.15 K, x1 = 0.9427 | – | 1600.9 ± 2.2
298.15 K, x1 = 0.9496 | 987.5 ± 2.3 | –
298.15 K, x1 = 0.9712 | – | 1597.4 ± 2.3
298.15 K, x1 = 0.9832 | – | 1595.9 ± 2.3
298.15 K, x1 = 0.993 | – | 1594.7 ± 2.3
298.15 K, x1 = 1 | 986.5 ± 2.1 | 1593.8 ± 2.3
303.15 K, x1 = 0.0002 | – | 1510.1 ± 1.1
303.15 K, x1 = 0.0005 | – | 1510.9 ± 1.1
303.15 K, x1 = 0.0007 | – | 1511.8 ± 1.1
303.15 K, x1 = 0.0011 | – | 1513 ± 1.1
303.15 K, x1 = 0.0014 | – | 1514.2 ± 1.1
303.15 K, x1 = 0.0019 | – | 1515.5 ± 1.1
303.15 K, x1 = 0.0023 | – | 1517.1 ± 1.1
303.15 K, x1 = 0.0028 | – | 1518.5 ± 1.1
303.15 K, x1 = 0.0033 | – | 1520.2 ± 1.1
303.15 K, x1 = 0.0038 | – | 1521.9 ± 1.2
303.15 K, x1 = 0.0045 | – | 1524.1 ± 1.2
303.15 K, x1 = 0.0052 | – | 1526.2 ± 1.2
303.15 K, x1 = 0.006 | – | 1528.5 ± 1.2
303.15 K, x1 = 0.0067 | – | 1530.9 ± 1.2
303.15 K, x1 = 0.0076 | – | 1533.3 ± 1.2
303.15 K, x1 = 0.0084 | – | 1535.8 ± 1.2
303.15 K, x1 = 0.0093 | – | 1538.3 ± 1.2
303.15 K, x1 = 0.0102 | – | 1540.9 ± 1.2
303.15 K, x1 = 0.0111 | – | 1543.4 ± 1.2
303.15 K, x1 = 0.0121 | – | 1546.1 ± 1.2
303.15 K, x1 = 0.0131 | – | 1549 ± 1.2
303.15 K, x1 = 0.0143 | – | 1552 ± 1.2
303.15 K, x1 = 0.0152 | – | 1554.6 ± 1.2
303.15 K, x1 = 0.0164 | – | 1557.6 ± 1.2
303.15 K, x1 = 0.0176 | – | 1560.4 ± 1.2
303.15 K, x1 = 0.0187 | – | 1563.2 ± 1.2
303.15 K, x1 = 0.0198 | – | 1565.8 ± 1.2
303.15 K, x1 = 0.0211 | – | 1568.8 ± 1.2
303.15 K, x1 = 0.0224 | – | 1571.8 ± 1.2
303.15 K, x1 = 0.0238 | – | 1575 ± 1.2
303.15 K, x1 = 0.025 | – | 1577.6 ± 1.2
303.15 K, x1 = 0.0263 | – | 1580.4 ± 1.2
303.15 K, x1 = 0.0274 | – | 1582.8 ± 1.2
303.15 K, x1 = 0.0286 | – | 1585.1 ± 1.2
303.15 K, x1 = 0.0298 | – | 1587.5 ± 1.2
303.15 K, x1 = 0.0311 | – | 1590.1 ± 1.2
303.15 K, x1 = 0.0323 | – | 1592.4 ± 1.2
303.15 K, x1 = 0.0336 | – | 1594.7 ± 1.2
303.15 K, x1 = 0.035 | – | 1597.4 ± 1.2
303.15 K, x1 = 0.0363 | – | 1599.7 ± 1.2
303.15 K, x1 = 0.0378 | – | 1602.2 ± 1.2
303.15 K, x1 = 0.0396 | – | 1605.2 ± 1.2
303.15 K, x1 = 0.0417 | – | 1608.5 ± 1.2
303.15 K, x1 = 0.0431 | – | 1610.7 ± 1.2
303.15 K, x1 = 0.0455 | – | 1614.4 ± 1.2
303.15 K, x1 = 0.0471 | – | 1616.7 ± 1.2
303.15 K, x1 = 0.0489 | – | 1619.2 ± 1.2
303.15 K, x1 = 0.0504 | – | 1621.1 ± 1.2
303.15 K, x1 = 0.0519 | – | 1623.1 ± 1.2
303.15 K, x1 = 0.0541 | – | 1625.9 ± 1.2
303.15 K, x1 = 0.0565 | – | 1628.8 ± 1.2
303.15 K, x1 = 0.0594 | – | 1632.1 ± 1.2
303.15 K, x1 = 0.0615 | – | 1634.4 ± 1.2
303.15 K, x1 = 0.0646 | – | 1637.6 ± 1.2
303.15 K, x1 = 0.0673 | – | 1640.2 ± 1.2
303.15 K, x1 = 0.0706 | – | 1643.2 ± 1.2
303.15 K, x1 = 0.0746 | – | 1646.6 ± 1.2
303.15 K, x1 = 0.0782 | – | 1649.5 ± 1.2
303.15 K, x1 = 0.0815 | – | 1651.8 ± 1.2
303.15 K, x1 = 0.0842 | – | 1653.7 ± 1.2
303.15 K, x1 = 0.0876 | – | 1655.8 ± 1.2
303.15 K, x1 = 0.0913 | – | 1658 ± 1.2
303.15 K, x1 = 0.0937 | – | 1659.3 ± 1.2
303.15 K, x1 = 0.0967 | – | 1660.8 ± 1.2
303.15 K, x1 = 0.0996 | – | 1662.2 ± 1.2
303.15 K, x1 = 0.1022 | – | 1663.4 ± 1.2
303.15 K, x1 = 0.1053 | – | 1664.7 ± 1.2
303.15 K, x1 = 0.1078 | – | 1665.7 ± 1.2
303.15 K, x1 = 0.1089 | – | 1666.1 ± 1.2
303.15 K, x1 = 0.1114 | – | 1667 ± 1.2
303.15 K, x1 = 0.1126 | – | 1667.4 ± 1.2
303.15 K, x1 = 0.1153 | – | 1668.3 ± 1.2
